We go through 13 molecules from patent US10376480B2, “Biguanide derivative, a preparation method thereof, and a pharmaceutical composition containing the biguanide derivative as an active ingredient” (Immunomet Therapeutics Inc., priority 2010, dated 2019).

The subject of data set [1] is 5′-AMP-activated protein kinase (AMPK). As to the kind of experiment: AMPK activation (AMPKα Thr172 phosphorylation immunoassay) in MCF7 cells. It counts as cell-based, human. Particulars: MCF7 cells; for AMPK Activation (phosphorylated AMPKα Thr172): 50 μM compound, 24 hours; for fold induction at 50 µM: Homo sapiens, 24 h, 50 μM vs. 0 (cells without compound). As to the method:
MCF7 cells derived from human breast cancer cells were used, and an effect of a biguanide derivative on 5′-AMP-activated protein kinase (AMPK) activation was confirmed using an AMPKα immunoassay kit (Invitrogen, catalog No. KHO0651).
The MCF7 cells were put on a 6-well plate and incubated in a DMEM medium containing 10% fetal bovine serum in an incubator to which 5% CO2 was supplied to have a cell count of approximately 5×10^5. 50 μM of derivatives synthesized in the examples were treated to the each culture medium, and the cells were incubated for 24 hours. Subsequently, the cells were lysed by a method presented in the operation manual of the AMPKα immunoassay kit, and 20 μg of cell lysates were yielded through protein assay. A degree of phosphorylation of an AMPKα threonine 172nd residue (Thr172) from the cell lysates were confirmed according to a method presented in the operation manual of the AMPKα immunoassay kit to thereby obtain results.
In addition, an experiment was performed in the same manner as described in Experimental Example 2 using metformin as a control group, and the results of an effect on AMPK activation were compared to the effect on AMPK activation when 1 mM metformin was treated.

The next data set deals with HCT116 cells. Put plainly: Inhibition of cancer cell proliferation (MTT, GIC50). The class given is cell-based. Particulars: Homo sapiens, HCT-116, 48 hours incubation. The procedure: HCT116 cells derived from human colorectal cancer were used, and an effect of a biguanide derivative on the inhibition of cancer cell proliferation was confirmed by measuring a concentration value (cell growth inhibition concentration, GIC50) at which 50% of the cell growth was inhibited using a 3-(4,5-dimethylthiazol-2-yl)-2,5-diphenytetrazolium bromide (MTT) reagent.
First, HCT116 cells were put on a 96-well plate and cultured in a DMEM medium containing 10% bovine serum for 24 hours to each have cell count of approximately 5000. Subsequently, to obtain the GIC50 value of each compound, 100 μM (or 200 μM), 25 μM, 6.25 μM, 1.56 μM or 0.39 μM of the compound was treated to each culture medium and then incubated for 48 hours. To confirm living cells after treatment with the compound, MTT was added to each culture medium and further incubated for 3 hours. Generated formazane crystal was dissolved using dimethyl sulfoxide (DMSO) and absorbance of the solution was measured at 560 nm. After the 48-hour incubation, a ratio of a cell count cultured on a well plate not treated with the compound to a cell count on a well plate treated with compounds synthesized in the examples was indicated as cell viability (%) according to each administered concentration. A cell viability curve was plotted using the cell viability (%), and the calculated concentration value (GIC50) of the compound, at which 50% of the growth was inhibited was, to confirm an effect on the inhibition of cancer cell proliferation.

As usually defined, the melting point is the temperature of the solid-liquid transition. One may read the fold induction as the signal under treatment as a multiple of the control signal. For orientation: IC50 means the concentration needed to halve the response being measured. Low values mean higher potency, high ones lower potency. With `CCCCNC(=N)NC(=N)N(C)C.Cl` [Example 18, N1,N1-dimethyl-N5-butyl Biguanide Hydrochloride], the melting point fell in the range of 131 to 133 °C. Further, in data set [1], the “AMPK Activation (phosphorylated AMPKα Thr172)” value (from here on “AMPK Activation”) is given as 4.6 and the fold induction at 50 µM is 0.9. In addition, the IC50 with HCT116 cells was more than 200 µM.

With `Cl.N=C(NCCc1ccccc1)NC(=N)NCCc1ccccc1` [Example 16, N1,N5-bis(phenethyl) Biguanide Hydrochloride], the melting point is 204 to 205 °C. Moreover, in data set [1], the “AMPK Activation” value worked out at 4.7 and the fold induction at 50 µM was 0.7. The molecule also had an IC50 in the data set with HCT116 cells of more than 100 µM.

Molecule `CCCN(CC)C(=N)NC(=N)Nc1ccc(Cl)cc1.Cl` [Example 32, N1,N1-(ethyl)(propyl)-N5-(4-chloro)phenyl Biguanide Hydrochloride] gave a melting point of 110 to 112 °C. Moreover, in data set [1], the “AMPK Activation” value worked out at 5.2 and the fold induction at 50 µM was found to be 1. For the same molecule, the IC50 in the data set on HCT116 cells is more than 200 µM.

With `Cl.N=C(NCCc1ccccc1)NC(=N)NCC1CC1` [Example 14, N1-(phenethyl)-N5-cyclopropylmethyl Biguanide Hydrochloride], the melting point is 143 to 146 °C. Besides, in data set [1], the “AMPK Activation” value amounted to 31.2 and the fold induction at 50 µM is 5.9. Besides, the IC50 in the data set on HCT116 cells turned out to be 47 µM.

`CN(C)C(=N)NC(=N)NCc1ccco1.Cl` [Example 26, N1,N1-dimethyl-N5-(furan-2-yl)methyl Biguanide Hydrochloride] gave a melting point of 176 to 177 °C. In addition, in data set [1], the “AMPK Activation” value is reported as 8.9 and the fold induction at 50 µM turned out to be 1.7. This molecule showed an IC50 in the data set with HCT116 cells of more than 200 µM.

Turning to `CN(C)C(=N)NC(=N)NCc1ccccc1.Cl` [Example 28, N1,N1-dimethyl-N5-benzyl Biguanide Hydrochloride], the melting point was 151 to 152 °C. In data set [1], the “AMPK Activation” value was found to be 5.9 and the fold induction at 50 µM was 1.2. This molecule registered an IC50 in the data set on HCT116 cells of more than 200 µM.

For the molecule `Cl.N=C(NC(=N)Nc1cccc(Cl)c1)Nc1cccc(Cl)c1` [Example 6, N1,N5-bis(3-chlorophenyl) Biguanide Hydrochloride], the melting point was in the range of 129 to 131 °C. Moreover, in data set [1], the “AMPK Activation” value was determined as 4.6 and the fold induction at 50 µM amounted to 0.7. Further, in the data set on HCT116 cells, the IC50 is more than 100 µM.

`CN(C)C(=N)NC(=N)NCC1CC1.Cl` [Example 24, N1,N1-dimethyl-N5-cyclopropylmethyl Biguanide Hydrochloride] gave a melting point of 117 to 118 °C. Moreover, in data set [1], the “AMPK Activation” value amounted to 5.1 and the fold induction at 50 µM was 1. Further, the IC50 in the data set on HCT116 cells was more than 200 µM.

Turning to `CN(C)C(=N)NC(=N)Nc1ccc(Br)cc1.Cl` [Example 25, N1,N1-dimethyl-N5-(4-bromo)phenyl Biguanide Hydrochloride], the melting point was in the range of 272 to 273 °C. Further, in data set [1], the “AMPK Activation” value worked out at 23.1 and the fold induction at 50 µM stood at 4.4. In the data set with HCT116 cells, this molecule gave an IC50 of more than 100 µM.

`CN(C)C(=N)NC(=N)NCc1cccnc1.Cl` [Example 27, N1,N1-dimethyl-N5-(pyridine-3-yl)methyl Biguanide Hydrochloride] registered a melting point of 112 to 114 °C. Besides, in data set [1], the “AMPK Activation” value was 4.6 and the fold induction at 50 µM was determined as 0.9. Besides, the IC50 in the data set with HCT116 cells is more than 200 µM.

`CCN(CC)C(=N)NC(=N)Nc1cccc(Cl)c1.Cl` [Example 30, N1,N1-diethyl-N5-(3-chloro)phenyl Biguanide Hydrochloride] had a melting point of 219 to 220 °C. Also, in data set [1], the “AMPK Activation” value is listed as 19.3 and the fold induction at 50 µM came to 7.7. In the data set with HCT116 cells, this molecule gave an IC50 of 28.3 µM.

The molecule `CCCNC(=N)NC(=N)NCCc1ccccc1.Cl` [Example 13, N1-(phenethyl)-N5-propyl Biguanide Hydrochloride] yielded a melting point of 126 to 128 °C. In data set [1], the “AMPK Activation” value amounted to 36.2 and the fold induction at 50 µM worked out at 6.8. Besides, it took 47.6 µM to reach half-maximal inhibition with HCT116 cells (IC50).

`CCCN(CCC)C(=N)NC(=N)N(C)CCc1ccccc1.Cl` [Example 38, N1,N1-dipropyl-N5,N5-(methyl)(phenethyl) Biguanide Hydrochloride] showed a melting point of 110 to 111 °C. Besides, in data set [1], the “AMPK Activation” value is on record as 35.8 and the fold induction at 50 µM is 6.8. Also, in the data set with HCT116 cells, the half-inhibitory concentration (IC50) is 36 µM.
